{
  "source": "patent US20020103221A1",
  "about": "“Use of growth hormone secretagogues for improvement of functional health status” (priority 2000, published 2002)",
  "origin": "cited, not measured here",
  "key": {"[1]": {"tested_on": "serum insulin-like growth factor-I; quadriceps muscle", "conditions": "canines, during remobilization"}, "[2]": {"tested_on": "markers of bone formation and bone resorption", "conditions": "obese young males"}, "[3]": {"conditions": "adult female rats"}, "[4]": {"conditions": "GH-deficient adults"}},
  "note": "Non-standard residues stand in square brackets, D forms with d. Residues, ends and D or L forms follow the SMILES beside them. d2Nal = N[C@H](Cc1ccc2ccccc2c1)C(=O)O; Aib = CC(C)(N)C(=O)O",
  "data": [
    {"compound": "CC(C)(N)C(=O)N[C@H](COCc1ccccc1)C(=O)N1CCC2(CC1)CN(S(C)(=O)=O)c1ccccc12", "note": "[MK-0677]", "values": [
      {"measurement": "levels of serum insulin-like growth factor-I", "setting": "[1]", "value": "elevated"},
      {"measurement": "size and strength of the quadriceps muscle", "setting": "[1]", "value": "increased"},
      {"measurement": "markers of bone formation and bone resorption", "setting": "[2]", "value": "increases"}
    ]},
    {"compound": "CC(C)(N)C(=O)N[C@@H](Cc1c[nH]cn1)C(=O)N[C@H](Cc1ccc2ccccc2c1)C(=O)N[C@H](Cc1ccccc1)C(=O)N[C@@H](CCCCN)C(N)=O", "note": "[ipamorelin] (H-[Aib]H[d2Nal][dF]K-NH2)", "values": [
      {"measurement": "bone mass", "setting": "[3]", "value": "capacity to increase bone mass"}
    ]},
    {"compound": "GHRP-6", "values": [
      {"measurement": "bone mass", "setting": "[3]", "value": "capacity to increase bone mass"}
    ]},
    {"compound": "growth hormone: growth hormone replacement given to GH-deficient adults", "values": [
      {"measurement": "self-perceived well-being", "setting": "[4]", "value": "significant improvements"}
    ]}
  ]
}
